According to EP2238984A1, “Caspasin inhibitor peptides” (INSTITUT NATIONAL DE LA RECHERCHE AGRONOMIQUE (INRA), priority 2009, dated 2010):

Test system: LNCaP human prostate cancer cells
Experiment: BrdU cell proliferation assay
Format: cell-based
Conditions: BrdU incorporation; for cell proliferation: LNCaP cells incubated with peptide, absorbance at 450 nm, at a concentration as lowest as 1 µM (Figure 1)
Procedure: Peptides of sequences SEQ ID NO: 48 and SEQ ID NO: 49 were used in the experiments. They were resuspended in dimethylsulfoxide (DMSO) to obtain a concentration of about 50 mM. They were then diluted in fetal calf serum (FCS) before being added to culture cells at the indicated concentrations.
FGC clone LNCaP human prostate cancer cells, commercialized by ATCC-LGC (Molsheim, France; ATCC Number: CRL-1740) were used.
The cells were incubated for 48 hours with the caspasin inhibitor peptides at the following concentrations: 0.1, 0.3, 0.9, 3, 10, 20, 30, 60 and 90 µM.
Cell proliferation was then assessed by quantifying the DNA precursor bromo-deoxyuridine (BrdU). This quantification was performed using the 5'-Bromo-2'-deoxy-uridine Labeling and Detection Kit (Roche) according to the manufacturer's instructions.
LNCaP prostatic cells were incubated for 24 hours in a 96-well plastic plate containing 200 µl RPMI 1640 medium complemented with 1.5 g/I sodium carbonate, 4.5 g/I glucose, 10 mM HEPES, 1.0 mM sodium pyruvate, 10% foetal bovine serum (FBS) and antibiotics. Peptides were pre-incubated for 1 h30 in 20 µl of FBS at 37°C, then added to 180 µl of RPMI. Medium from plates was released and the medium containing peptides was added to the cells. The cells were then cultured for another 24 hours. BrdU incorporation was then determined by measuring the absorbance at 450 nm on an ELISA plate reader.

Row | Substance | cell proliferation | concentration of peptide at which a plateau was reached (cell proliferation) (LNCaP cells, concentrations tested 0.1-90 µM (Figure 1)) [µM]
1 | SEQ ID NO: 48: caspasin inhibitor peptide originating from a caspasin reactive centre loop; sequence only in the sequence listing (ATGIGI) | drastic decrease of the cell proliferation | 
2 | SEQ ID NO: 49: caspasin inhibitor peptide originating from a caspasin reactive centre loop; sequence only in the sequence listing (FLMMITNKA) | drastic decrease of the cell proliferation | 3
